Values of other authors, collected in patent US10213411B2, “Use of prodrugs of fumarates in treating heart failure diseases” (priority 2015, dated 2019).
Structures can show the parent of a compound that is named as a salt.

Experiments:
[1] = healthy subjects, compared by MMF plasma levels
[2] = system: central nervous system (CNS) inflammation; conditions: preclinical
[3] = system: central nervous system (CNS) inflammation; conditions: preclinical; remark: listed apart in the source
[4] = system: astrogliosis and microglial activations

| SMILES | dose comparable to 240 mg DMF (Tecfidera) by plasma levels of MMF [1] | CNS inflammation in rat EAE [2] | CNS inflammation in murine EAE [3] | astrogliosis and microglial activations associated with EAE [4] |
| --- | --- | --- | --- | --- |
| COC(=O)/C=C/C(=O)OCCN1C(=O)CCC1=O [ALKS 8700] | 420 mg | – | – | – |
| COC(=O)/C=C/C(=O)OC [DMF, Dimethyl fumarate] | – | inhibit central nervous system (CNS) inflammation | inhibit central nervous system (CNS) inflammation | inhibit astrogliosis and microglial activations |
